The text below walks through data of ChEMBL document CHEMBL4483862, “Open-source discovery of chemical leads for next-generation chemoprotective antimalarials” (2018).

The subject of this assay is Plasmodium berghei. The assay is described as follows: Luciferase/luciferin-expressing antifolate-resistant parasites were used to infect a culture of HepG2 cells that were pre-incubated with compounds. Infected hepatocytes emit light due to the luciferase reaction. Assay results are presented as the percent inhibition of light emission compared to control. […]. The assay is classed as functional. The settings on record: sporozoite; for IC90: read-out: LUCIFERASE INFECTION ASSAY - IC90.

`CCc1ccc(C2=NN=C(Nc3cccc(S(=O)(=O)N(C)C)c3)SC2)cc1`: the IC90 (commonly the concentration needed for an effect of 90%) is 9.95 µM. Moreover, for the setting “FFLUC_HILL_SLOPE 1.2, FFLUC_R_SQUARED 0.399, HEPG2TOX_HILL_SLOPE 10.6, HEPG2TOX_R_SQUARED 0.97, PBLUC_HILL_SLOPE 5.57, PBLUC_R_SQUARED 0.702, read-out: LUCIFERASE INFECTION ASSAY - IC50”, the IC50 (commonly the concentration that gives 50% inhibition) turned out to be 6.71 µM.
Take `CC(C)(C)c1ccc(C(=O)NCCOc2ccccc2F)cc1`: the IC90 was found to be 0.642 µM. Moreover, the half-inhibitory concentration (IC50) (FFLUC_HILL_SLOPE 1.22, FFLUC_R_SQUARED 0.498, PBLUC_HILL_SLOPE 0.635, PBLUC_R_SQUARED 0.572, read-out: LUCIFERASE INFECTION ASSAY - IC50) was 0.0201 µM.
On to `COc1cc(/C=C(\C#N)c2nc3ccccc3[nH]2)ccc1OC(=O)c1cc2c(C)nn(-c3ccccc3)c2s1`, for which the IC90 was > 10 µM. Besides, where the note is “FFLUC_HILL_SLOPE 1.24, FFLUC_R_SQUARED 0.777, PBLUC_HILL_SLOPE 2.61, PBLUC_R_SQUARED 0.768, read-out: LUCIFERASE INFECTION ASSAY - IC50”, the IC50 is 5.91 µM.
On to `C/N=c1\scc(-c2ccc(C)c(C)c2)n1/N=C/c1ccc[nH]1`, for which the IC90 was > 10 µM. The IC50 (FFLUC_HILL_SLOPE 1.19, FFLUC_R_SQUARED 0.95, read-out: LUCIFERASE INFECTION ASSAY - IC50) is > 10 µM.
In the case of `Nc1nn(C(=O)c2csc3ccccc23)c2ccccc12`, the IC90 was > 10 µM. For the setting “FFLUC_HILL_SLOPE 1.19, FFLUC_R_SQUARED 0.595, HEPG2TOX_HILL_SLOPE 0.0302, HEPG2TOX_R_SQUARED 0.0617, PBLUC_HILL_SLOPE 0.566, PBLUC_R_SQUARED 0.73, read-out: LUCIFERASE INFECTION ASSAY - IC50”, the IC50 was found to be 0.359 µM.
For the compound `Cc1onc(-c2c(Cl)cccc2Cl)c1-c1csc(-c2ccccc2Cl)n1`, the IC90 is 6.63 µM. Moreover, under “FFLUC_HILL_SLOPE 1.25, FFLUC_R_SQUARED 0.188, HEPG2TOX_HILL_SLOPE 2.28, HEPG2TOX_R_SQUARED 0.946, PBLUC_HILL_SLOPE 2.98, PBLUC_R_SQUARED 0.455, read-out: LUCIFERASE INFECTION ASSAY - IC50”, the 50% inhibitory concentration (IC50) is 3.17 µM.
`N#Cc1c(N)nc2c(c1N)C(C(C#N)C#N)c1cc(Br)ccc1O2` (centres undefined): the concentration for an effect of 90% (IC90) is > 8.66 µM. The IC50 (FFLUC_HILL_SLOPE 1.21, FFLUC_R_SQUARED 0.243, read-out: LUCIFERASE INFECTION ASSAY - IC50) is > 8.66 µM.
Take `CCC(C)NC(=O)c1c(NC(=O)C2CCCC2)nc2ccc(C)cn12` (centres undefined): the IC90 was > 9.64 µM. In addition, the IC50 (FFLUC_HILL_SLOPE 1.17, FFLUC_R_SQUARED 0.173, read-out: LUCIFERASE INFECTION ASSAY - IC50) is > 9.64 µM.
Regarding `Cc1ccc(-c2nc(CSc3nc(C)c(C)n3CC3CCCO3)co2)c(C)c1` (centres undefined), the IC90 is > 10 µM. Also, under “FFLUC_HILL_SLOPE 1.24, FFLUC_R_SQUARED 0.0904, HEPG2TOX_HILL_SLOPE 3.11, HEPG2TOX_R_SQUARED 0.82, read-out: LUCIFERASE INFECTION ASSAY - IC50”, the IC50 is > 10 µM.
With `Cc1cc(C2=NNC(=NC3CC3)SC2)c(C)n1-c1ccccn1`, the concentration for an effect of 90% (IC90) was found to be 1.61 µM. Besides, the IC50 (FFLUC_HILL_SLOPE 1.22, FFLUC_R_SQUARED 0.875, PBLUC_HILL_SLOPE 1.09, PBLUC_R_SQUARED 0.799, read-out: LUCIFERASE INFECTION ASSAY - IC50) turned out to be 0.213 µM.
Consider `N#CC(C#N)=C1C=C(c2ccc(O)cc2)Oc2ccccc21`, for which the IC90 is > 10 µM. For the same compound, the IC50 (FFLUC_HILL_SLOPE 1.23, FFLUC_R_SQUARED 0.408, read-out: LUCIFERASE INFECTION ASSAY - IC50) was > 10 µM.
Turning to `N#Cc1c(/N=C/c2ccccc2C(F)(F)F)sc2c1CCCCC2`, the IC90 was 7.41 µM. The concentration for half-maximal inhibition (IC50) (FFLUC_HILL_SLOPE 1.19, FFLUC_R_SQUARED 0.84, PBLUC_HILL_SLOPE 1.29, PBLUC_R_SQUARED 0.776, read-out: LUCIFERASE INFECTION ASSAY - IC50) is 1.35 µM.
With `Nc1c(C(=O)Nc2cccc(Cl)c2)sc2nc3c(c(-c4cccnc4)c12)CCC3`, the IC90 is > 7.84 µM. For the same compound, under “FFLUC_HILL_SLOPE 1.24, FFLUC_R_SQUARED 0.605, PBLUC_HILL_SLOPE 2.61, PBLUC_R_SQUARED 0.023, read-out: LUCIFERASE INFECTION ASSAY - IC50”, the IC50 was > 7.84 µM.
As for `CC(C)(C)C1=CSC(=C2Sc3ccccc3C2=O)N1`, the IC90 was > 11.4 µM. Further, the IC50 (FFLUC_HILL_SLOPE 1.22, FFLUC_R_SQUARED 0.112, read-out: LUCIFERASE INFECTION ASSAY - IC50) was > 11.4 µM.
For the compound `CCCCCCCCCCCc1nnc(SCc2ccccc2)n1-c1ccccc1C(F)(F)F`, the IC90 was > 6.74 µM. In addition, the IC50 (FFLUC_HILL_SLOPE 1.21, FFLUC_R_SQUARED 0.637, read-out: LUCIFERASE INFECTION ASSAY - IC50) is > 6.74 µM.
With `O=C1C=CC(=O)N1c1cc(F)ccc1F`, the IC90 is > 15.8 µM. Besides, under “FFLUC_HILL_SLOPE 1.16, FFLUC_R_SQUARED 0.312, PBLUC_HILL_SLOPE 23.3, PBLUC_R_SQUARED 0.503, read-out: LUCIFERASE INFECTION ASSAY - IC50”, the IC50 was determined as 15.2 µM.
For `COc1ccc(S(=O)(=O)OCCSc2ccc([N+](=O)[O-])c3nonc23)cc1`, the IC90 is > 8.02 µM. The IC50 (FFLUC_HILL_SLOPE 1.23, FFLUC_R_SQUARED 0.562, read-out: LUCIFERASE INFECTION ASSAY - IC50) is > 8.02 µM.
For the compound `Cc1cc(C(=O)COC(=O)c2ccccc2N/C=C/C(=O)C(F)(F)F)c(C)n1CC1CCCO1` (centres undefined), the IC90 is > 10 µM. Besides, the IC50 (FFLUC_HILL_SLOPE 1.17, FFLUC_R_SQUARED 0.844, PBLUC_HILL_SLOPE 1.67, PBLUC_R_SQUARED 0.404, read-out: LUCIFERASE INFECTION ASSAY - IC50) was determined as 3.35 µM.
With `CCOc1cc(C(=O)Oc2cccc(Cl)c2Cl)cc(OCC)c1OCC`, the IC90 is > 10 µM. Moreover, the IC50 (FFLUC_HILL_SLOPE 1.16, FFLUC_R_SQUARED 0.617, read-out: LUCIFERASE INFECTION ASSAY - IC50) is > 10 µM.
For the compound `CC(C)Nc1cc(C(=O)Nc2ccccc2)ncn1`, the IC90 was > 12.9 µM. In addition, the IC50 (FFLUC_HILL_SLOPE 1.2, FFLUC_R_SQUARED 0.891, PBLUC_HILL_SLOPE 0.483, PBLUC_R_SQUARED 0.815, read-out: LUCIFERASE INFECTION ASSAY - IC50) was found to be 0.196 µM.
Turning to `c1ccc(Nc2nc(-c3ccc4c(c3)OCCO4)cs2)nc1`, the IC90 worked out at 2.55 µM. Also, where the note is “FFLUC_HILL_SLOPE 1.22, FFLUC_R_SQUARED 0.822, PBLUC_HILL_SLOPE 0.789, PBLUC_R_SQUARED 0.792, read-out: LUCIFERASE INFECTION ASSAY - IC50”, the IC50 was determined as 0.158 µM.
In the case of `CC(C)n1ncc2cc(C(=O)Nc3nc4c(s3)CCCC4)cnc21`, the IC90 was 0.68 µM. Besides, the IC50 (FFLUC_HILL_SLOPE 1.2, FFLUC_R_SQUARED 0.643, HEPG2TOX_HILL_SLOPE 0.617, HEPG2TOX_R_SQUARED 0.917, PBLUC_HILL_SLOPE 0.702, PBLUC_R_SQUARED 0.926, read-out: LUCIFERASE INFECTION ASSAY - IC50) was 0.0298 µM.
Consider `CC(C)c1ccc(C(=O)Nc2ccccn2)cc1`, for which the 90% effect concentration (IC90) is > 13.7 µM. The IC50 (FFLUC_HILL_SLOPE 1.25, FFLUC_R_SQUARED 0.914, PBLUC_HILL_SLOPE 0.406, PBLUC_R_SQUARED 0.482, read-out: LUCIFERASE INFECTION ASSAY - IC50) is 1.63 µM.
Regarding `Fc1ccccc1-c1cnn2c(NCc3cccs3)ccnc12`, the IC90 was > 10.2 µM. Also, the IC50 (FFLUC_HILL_SLOPE 1.17, FFLUC_R_SQUARED 0.682, PBLUC_HILL_SLOPE 0.51, PBLUC_R_SQUARED 0.639, read-out: LUCIFERASE INFECTION ASSAY - IC50) worked out at 0.238 µM.
As for `COc1cc(Cl)c(C)cc1-n1c(Sc2ccc([N+](=O)[O-])c(C(F)(F)F)c2)nc2ccccc2c1=O`, the IC90 is > 10 µM. Under “FFLUC_HILL_SLOPE 1.25, FFLUC_R_SQUARED 0.54, HEPG2TOX_HILL_SLOPE 0.668, HEPG2TOX_R_SQUARED 0.6, PBLUC_HILL_SLOPE 3.18, PBLUC_R_SQUARED 0.355, read-out: LUCIFERASE INFECTION ASSAY - IC50”, the IC50 was determined as 6.33 µM.
Take `OC1(c2ccc(OC(F)F)cc2)CN(c2ccc(Br)cc2)C2=[N+]1c1ccccc1CC2` (centres undefined): the IC90 is > 10 µM. Also, the IC50 (FFLUC_HILL_SLOPE 1.23, FFLUC_R_SQUARED 0.743, PBLUC_HILL_SLOPE 152, PBLUC_R_SQUARED 0.276, read-out: LUCIFERASE INFECTION ASSAY - IC50) came out at 9.94 µM.
Consider `Cc1c(C)c(C)c(C(=O)C2CCN(C(=O)c3ccc([N+](=O)[O-])o3)CC2)c(C)c1C`, for which the 90% effect concentration (IC90) was > 8.28 µM. In addition, the IC50 (FFLUC_HILL_SLOPE 1.26, FFLUC_R_SQUARED 0.398, read-out: LUCIFERASE INFECTION ASSAY - IC50) is > 8.28 µM.
